Target: calpain 1 (Homo sapiens (Human), UniProt P07384)
Assay: Assay for the determination of the capacity to inhibit calpain 1 (Calpain-Glo Protease kit)
Type: biochemical
Details: Calpain-Glo luminescence; 16 ng/mL calpain 1; at least 6 concentrations; read-out: Calpain 1 inhibitory activity IC50
Method: Assay for the Determination of the Capacity to Inhibit Calpain 1
Activity of Calpain 1 was measured by using Calpain-Glo Protease kit from Promega. Assays were run in 384-well black plates with clear bottom. 5 μl of compounds in a 10 mM HEPES and 1 mM EDTA aqueous solution were incubated with 15 μL of a solution of 16 ng/mL calpain 1 (Sigma Aldrich) for 2 minutes and then 20 μL of Calpain-Glo™ Reagent provided in the kit were added to each well. Luminiscence elicited by calpain 1-induced substrate lysis was measured in a Hamamatsu FDSS 7000 reader and data was calculated from the maximal luminescence peak. Calpain inhibition was calculated from the formula: % inhibition=[…]; wherein LT is the luminescence observed in the tested compound, LB is blank luminescence obtained from a well without calpain 1 and LC is the luminescence observed in control wells including calpain1 in the absence of inhibitor.
All compounds were tested using, at least, 6 concentrations to allow calculate the IC50 (concentration that inhibits the activity of calpain 1 by 50%).
Calpastatin and ALLN were included as control inhibitors in all the assays.

calpain 1, sequence (P07384 whole entry): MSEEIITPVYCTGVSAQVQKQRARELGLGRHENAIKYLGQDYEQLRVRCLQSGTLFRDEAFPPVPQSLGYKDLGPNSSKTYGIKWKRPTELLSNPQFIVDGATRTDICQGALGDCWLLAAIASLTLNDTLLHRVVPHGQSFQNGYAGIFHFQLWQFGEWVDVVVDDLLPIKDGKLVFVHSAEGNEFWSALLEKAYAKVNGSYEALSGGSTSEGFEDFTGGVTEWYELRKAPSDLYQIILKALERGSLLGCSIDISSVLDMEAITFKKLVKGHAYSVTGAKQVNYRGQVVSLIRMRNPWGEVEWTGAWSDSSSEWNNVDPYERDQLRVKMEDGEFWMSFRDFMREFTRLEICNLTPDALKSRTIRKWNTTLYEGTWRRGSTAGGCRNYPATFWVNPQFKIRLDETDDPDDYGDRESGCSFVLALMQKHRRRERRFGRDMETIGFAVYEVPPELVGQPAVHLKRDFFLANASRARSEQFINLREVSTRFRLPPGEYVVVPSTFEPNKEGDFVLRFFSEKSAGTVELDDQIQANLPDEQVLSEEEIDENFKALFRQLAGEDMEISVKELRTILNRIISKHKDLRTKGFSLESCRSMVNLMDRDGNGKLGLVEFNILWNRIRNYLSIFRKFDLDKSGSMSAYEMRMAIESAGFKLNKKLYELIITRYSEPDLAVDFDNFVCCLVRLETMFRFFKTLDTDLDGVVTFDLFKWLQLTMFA
calpain 1, sequence (P04632 whole entry partner): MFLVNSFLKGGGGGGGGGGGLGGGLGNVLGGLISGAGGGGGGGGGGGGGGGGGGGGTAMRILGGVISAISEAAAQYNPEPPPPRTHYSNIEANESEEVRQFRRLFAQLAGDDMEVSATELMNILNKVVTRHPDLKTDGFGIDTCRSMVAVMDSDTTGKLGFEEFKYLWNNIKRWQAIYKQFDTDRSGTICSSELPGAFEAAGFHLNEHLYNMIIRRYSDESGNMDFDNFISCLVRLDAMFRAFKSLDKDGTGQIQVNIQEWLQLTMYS

Row | IC50 [nM] | SMILES
1 | 0.008 | COc1cccc(C(=O)N[C@@H](CC2CC2)C(=O)NC(Cc2ccccc2)C(=O)C(=O)NC2CC2)c1 (stereo partly drawn) [Example 3, N-((S)-3-cyclopropyl-1-((4-(cyclopropylamino)-3,4-dioxo-1-phenylbutan-2-yl)amino)-1-oxopropan-2-yl)-3-methoxybenzamide]
2 | 7.1 | CONC(=O)C(=O)C(Cc1ccccc1)NC(=O)[C@H](CC1CC1)NC(=O)c1cccc(OC)c1 (stereo partly drawn) [Example 4, N-((S)-3-cyclopropyl-1-((4-(methoxyamino)-3,4-dioxo-1-phenylbutan-2-yl)amino)-1-oxopropan-2-yl)-3-methoxybenzamide]

Further lines, the compound ahead of its results:

Row | SMILES | IC50 [nM]
3 | COc1ccc(C(=O)N[C@@H](CC(C)C)C(=O)N[C@@H](Cc2ccccc2)C(=O)C(=O)NC2CC2)cc1 [Comp. Example 5, N-((S)-1-(((S)-4-(cyclopropylamino)-3,4-dioxo-1-phenylbutan-2-yl)amino)-4-methyl-1-oxopentan-2-yl)-4-methoxybenzamide, reference compound] | 255
4 | COc1ccccc1C(=O)N[C@@H](CC(C)C)C(=O)N[C@@H](Cc1ccccc1)C(=O)C(=O)NC1CC1 [Comp. Example 6, N-((S)-1-(((S)-4-(cyclopropylamino)-3,4-dioxo-1-phenylbutan-2-yl)amino)-4-methyl-1-oxopentan-2-yl)-2-methoxybenzamide, reference compound] | 110
5 | COc1cccc(C(=O)N[C@@H](CC(C)C)C(=O)N[C@@H](Cc2ccccc2)C(=O)C(=O)NC2CC2)c1 [Example 1, N-((S)-1-(((S)-4-(cyclopropylamino)-3,4-dioxo-1-phenylbutan-2-yl)amino)-4-methyl-1-oxopentan-2-yl)-3-methoxybenzamide] | 0.03
6 | COc1cccc(C(=O)N[C@H](C(=O)NC(Cc2ccccc2)C(=O)C(=O)NC2CC2)C(C)C)c1 (stereo partly drawn) [Example 2, N-((S)-1-((4-(cyclopropylamino)-3,4-dioxo-1-phenylbutan-2-yl)amino)-3-methyl-1-oxobutan-2-yl)-3-methoxybenzamide] | 2.2

Reference: patent US11242312B2, “Dipeptidyl ketoamide meta-methoxyphenyl derivatives and uses thereof” (LANDSTEINER GENMED, S.L., priority 2018, dated 2022)
